Experimental data from the NIST ThermoML archive (doi:10.1016/j.fluid.2009.08.011).

Experiment: cn = amount concentration of the nth substance listed, in mol/dm3
Conditions: 101 kPa, Liquid, Alternating current cell with electrodes

CCCCn1cc[n+](C)c1.[Br-] [1-butyl-3-methylimidazolium bromide] + O
Conditions	molar conductivity [S·m2/mol]
298.15 K, c1 = 0.0004937	0.0131
298.15 K, c1 = 0.0008655	0.0131
298.15 K, c1 = 0.001621	0.013
298.15 K, c1 = 0.002706	0.0129
298.15 K, c1 = 0.003761	0.0128
298.15 K, c1 = 0.005815	0.0126
298.15 K, c1 = 0.008089	0.0125
298.15 K, c1 = 0.01047	0.0123
298.15 K, c1 = 0.01259	0.0122
308.15 K, c1 = 0.0004882	0.0137
308.15 K, c1 = 0.00104	0.0135
308.15 K, c1 = 0.001567	0.0135
308.15 K, c1 = 0.001953	0.0134
308.15 K, c1 = 0.002955	0.0132
308.15 K, c1 = 0.00388	0.0131
308.15 K, c1 = 0.004882	0.0129
308.15 K, c1 = 0.006552	0.0128
308.15 K, c1 = 0.008273	0.0127
308.15 K, c1 = 0.009904	0.0125
308.15 K, c1 = 0.01206	0.0124
318.15 K, c1 = 0.000457	0.015
318.15 K, c1 = 0.001096	0.0148
318.15 K, c1 = 0.001486	0.0147
318.15 K, c1 = 0.002393	0.0143
318.15 K, c1 = 0.003324	0.014
318.15 K, c1 = 0.004652	0.0138
318.15 K, c1 = 0.006235	0.0134
318.15 K, c1 = 0.008073	0.0131
318.15 K, c1 = 0.009991	0.0129
318.15 K, c1 = 0.012	0.0126
318.15 K, c1 = 0.0138	0.0124
328.15 K, c1 = 0.00043	0.0158
328.15 K, c1 = 0.000847	0.0157
328.15 K, c1 = 0.001805	0.0154
328.15 K, c1 = 0.002719	0.0152
328.15 K, c1 = 0.003628	0.015
328.15 K, c1 = 0.005125	0.0147
328.15 K, c1 = 0.006801	0.0144
328.15 K, c1 = 0.008998	0.014
328.15 K, c1 = 0.01111	0.0136
328.15 K, c1 = 0.01358	0.0132

CCCCn1cc[n+](C)c1.[Cl-] [1-butyl-3-methylimidazolium chloride] + O
Conditions	molar conductivity [S·m2/mol]
298.15 K, c1 = 0.0004271	0.0109
298.15 K, c1 = 0.0009378	0.0108
298.15 K, c1 = 0.001755	0.0107
298.15 K, c1 = 0.002553	0.0106
298.15 K, c1 = 0.002999	0.0106
298.15 K, c1 = 0.003835	0.0105
298.15 K, c1 = 0.004438	0.0104
298.15 K, c1 = 0.004986	0.0104
298.15 K, c1 = 0.005608	0.0103
298.15 K, c1 = 0.006388	0.0103
298.15 K, c1 = 0.007112	0.0102
298.15 K, c1 = 0.008217	0.0101
298.15 K, c1 = 0.008932	0.0101
298.15 K, c1 = 0.009777	0.00999
298.15 K, c1 = 0.01041	0.00996
298.15 K, c1 = 0.01119	0.00983
298.15 K, c1 = 0.01216	0.00978
298.15 K, c1 = 0.01304	0.00968
298.15 K, c1 = 0.01389	0.00962
308.15 K, c1 = 0.0006735	0.0111
308.15 K, c1 = 0.001508	0.011
308.15 K, c1 = 0.002241	0.011
308.15 K, c1 = 0.002432	0.0109
308.15 K, c1 = 0.003588	0.0108
308.15 K, c1 = 0.004875	0.0106
308.15 K, c1 = 0.006007	0.0104
308.15 K, c1 = 0.008219	0.0103
308.15 K, c1 = 0.01013	0.0103
308.15 K, c1 = 0.01259	0.0102
308.15 K, c1 = 0.01457	0.0101
308.15 K, c1 = 0.01708	0.01
308.15 K, c1 = 0.01958	0.01
308.15 K, c1 = 0.02199	0.00998
318.15 K, c1 = 0.000681	0.0119
318.15 K, c1 = 0.001635	0.0117
318.15 K, c1 = 0.002388	0.0113
318.15 K, c1 = 0.003429	0.0111
318.15 K, c1 = 0.004391	0.0109
318.15 K, c1 = 0.006618	0.0107
318.15 K, c1 = 0.008725	0.0105
318.15 K, c1 = 0.01078	0.0103
318.15 K, c1 = 0.01367	0.0101
318.15 K, c1 = 0.01671	0.00997
318.15 K, c1 = 0.02016	0.00981
318.15 K, c1 = 0.02295	0.0097
318.15 K, c1 = 0.02493	0.00962
328.15 K, c1 = 0.0006908	0.0125
328.15 K, c1 = 0.0007995	0.0124
328.15 K, c1 = 0.001327	0.0123
328.15 K, c1 = 0.002041	0.0121
328.15 K, c1 = 0.002693	0.012
328.15 K, c1 = 0.004479	0.0115
328.15 K, c1 = 0.006054	0.0113
328.15 K, c1 = 0.007413	0.0111
328.15 K, c1 = 0.008786	0.0109
328.15 K, c1 = 0.01028	0.0108
328.15 K, c1 = 0.01229	0.0106
328.15 K, c1 = 0.01504	0.0104
328.15 K, c1 = 0.01749	0.0102

CCCCCn1cc[n+](C)c1.[Br-] [1-pentyl-3-methylimidazolium bromide] + O
Conditions	molar conductivity [S·m2/mol]
298.15 K, c1 = 0.000384	0.0111
298.15 K, c1 = 0.0008844	0.0111
298.15 K, c1 = 0.001373	0.011
298.15 K, c1 = 0.001897	0.011
298.15 K, c1 = 0.002397	0.0109
298.15 K, c1 = 0.003002	0.0108
298.15 K, c1 = 0.004323	0.0107
298.15 K, c1 = 0.005743	0.0106
298.15 K, c1 = 0.00718	0.0105
298.15 K, c1 = 0.008646	0.0104
298.15 K, c1 = 0.01011	0.0102
298.15 K, c1 = 0.01145	0.0102
298.15 K, c1 = 0.01293	0.01
308.15 K, c1 = 0.0006353	0.0115
308.15 K, c1 = 0.001306	0.0114
308.15 K, c1 = 0.002028	0.0113
308.15 K, c1 = 0.002681	0.0113
308.15 K, c1 = 0.003351	0.0112
308.15 K, c1 = 0.003975	0.0111
308.15 K, c1 = 0.004605	0.011
308.15 K, c1 = 0.00598	0.0109
308.15 K, c1 = 0.007554	0.0107
308.15 K, c1 = 0.008895	0.0106
308.15 K, c1 = 0.01033	0.0105
308.15 K, c1 = 0.01176	0.0103
308.15 K, c1 = 0.01422	0.0101
318.15 K, c1 = 0.0004898	0.0136
318.15 K, c1 = 0.001056	0.0135
318.15 K, c1 = 0.002177	0.0134
318.15 K, c1 = 0.003249	0.0131
318.15 K, c1 = 0.004768	0.0128
318.15 K, c1 = 0.006798	0.0124
318.15 K, c1 = 0.009143	0.012
318.15 K, c1 = 0.01259	0.0115
318.15 K, c1 = 0.01687	0.0109
318.15 K, c1 = 0.02234	0.0103
328.15 K, c1 = 0.0004268	0.0146
328.15 K, c1 = 0.0008311	0.0141
328.15 K, c1 = 0.001314	0.0139
328.15 K, c1 = 0.002252	0.0137
328.15 K, c1 = 0.003274	0.0135
328.15 K, c1 = 0.004773	0.0133
328.15 K, c1 = 0.006329	0.0131
328.15 K, c1 = 0.008289	0.0128
328.15 K, c1 = 0.01078	0.0125
328.15 K, c1 = 0.01389	0.0122
328.15 K, c1 = 0.01791	0.0118
328.15 K, c1 = 0.02233	0.0115
328.15 K, c1 = 0.02611	0.0111
